# Measurements from PubChem BioAssay (NCI).
#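 A five-concentration, 48-hour dose response in 96-well plates underlies each endpoint, interpolated linearly between surrounding concentrations. Abbreviation: GI50, concentration required for 50% inhibition of growth. TGI: total growth inhibition.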
# Tests used:
# Assay in all cases: DTP human tumour cell line panel, 48 h
# [1] = tested on: HS 578T breast
# [2] = tested on: MDA-N
# [3] = tested on: DMS 273 small cell lung
# [4] = tested on: LXFL 529 NSCLC
# [5] = tested on: RXF-631 renal
# [6] = tested on: SNB-78 CNS
# [7] = tested on: XF 498 CNS
# [8] = tested on: HOP-18 NSCLC
# [9] = tested on: KM20L2 colon
SMILES,TGI [1] [µM],GI50 [1] [µM],TGI [3] [µM],TGI [4] [µM],TGI [6] [µM],other results
CC1(C)OC2C(CO)OC(n3ccc(N)nc3=O)C2O1 (stereo not drawn),> 100,–,–,–,–,TGI [2]: > 100 µM
CCOC(=O)[C@@H](C)C[C@H](Cc1ccccc1)NC(=O)c1csc([C@@H](C[C@H](C(C)C)N(C)C(=O)[C@@H](NC(=O)[C@H]2C[C@H](O)CCN2C)C(C)C)OC(C)=O)n1,> 16.7,0.00906,–,–,–,–
C=C1c2[nH]c3ccccc3c2CC(C(=O)O)N1C(O)c1ccc(S(=O)(=O)O)cc1 (stereo not drawn),–,–,> 100,> 100,> 100,TGI [5]: > 100 µM; TGI [7]: > 100 µM
Cc1ccc(NC(=O)c2nc(S(C)(=O)=O)oc2-c2ccc(F)cc2)cc1Nc1ccc2ncn(C)c(=O)c2c1,14.9,3.06,–,–,–,–
CCc1nc2ccccc2c(=O)n1/N=C(\N=Nc1ccc(Cl)cc1)c1ccccc1,–,–,50,50.8,71.1,TGI [8]: 71 µM; TGI [9]: 27.7 µM
O=C1NC(=O)C2C1C1C=C3c4ccccc4N(c4ccccc4)C32[C@H]2C(=O)NC(=O)[C@@H]12 (stereo partly drawn),–,–,> 100,> 100,> 100,TGI [8]: > 100 µM; TGI [9]: > 100 µM
CN(CSc1ccc(Cl)cc1)c1ccc(CSc2ccc(Cl)cc2)cc1,21.1,3.7,–,–,–,–
FC(F)(F)c1ccc(-c2ncc(-c3ccc(C(F)(F)F)cc3)c(NCc3cc(C(F)(F)F)cc(C(F)(F)F)c3)n2)cc1,27.4,2.83,–,–,–,–
C#CCn1c(=O)c2cccnc2n(CC#C)c1=O,–,–,> 100,> 100,> 100,TGI [8]: > 100 µM; TGI [7]: > 100 µM
COC1=CC(=O)OC(/C=C(C)/C=C/C2=C(C)CCCC2(C)C)C1 (stereo not drawn),–,–,> 100,> 100,> 100,TGI [9]: > 100 µM
CCOc1cc(/C=C/C(=O)C(C(=O)/C=C/c2ccc(OC(=O)CNc3nnc(C)s3)c(OCC)c2)C(=O)CNc2nnc(C)s2)ccc1OC(=O)CNc1nnc(C)s1,12.4,2.28,–,–,–,–
COC(=O)c1nc(C(=O)OC)c2c([nH]c3ccccc32)c1C(=O)OC,–,–,> 100,> 100,> 100,TGI [7]: > 100 µM
COC(=O)[C@@H](C)C[C@H](Cc1ccccc1)NC(=O)c1csc([C@@H](C[C@H](C(C)C)N(C)C(=O)C2(NC(=O)[C@H]3CCCCN3C)CCC2)OC(C)=O)n1,–,0.0463,–,–,–,–
CCCCN(CC)CCCCCCCCCCN1CCCc2cc(OC)ccc21,> 100,4.2,–,–,–,–
CC(C)OCc1cc(CN2CCN(c3cccc(Cl)c3)CC2)c(O)c2ncccc12,35.3,4.03,–,–,–,–
NCCCNc1nc2ccc(Cl)cc2c2c(=O)c3cc(F)ccc3sc12,17.7,3.22,–,–,–,–
O=C(O)CNCCc1ccccc1,> 100,–,–,–,–,TGI [2]: > 100 µM
C=C(CN1CCN(c2ccccc2C(F)(F)F)CC1)c1ccc(C(=O)Nc2ccccc2N)cc1,> 100,12.8,–,–,–,–
CC(=O)N(CCN1C(=O)c2ccccc2C1=O)CCN1C(=O)c2ccccc2C1=O,–,–,> 100,> 100,> 100,TGI [9]: > 100 µM; TGI [7]: > 100 µM

SMILES,TGI [1] [µM],GI50 [1] [µM],TGI [3] [µM],TGI [4] [µM],TGI [6] [µM],other results
Cc1cc(C(O)(c2ccc(Nc3ccccc3)cc2)c2ccc(Nc3ccc(S(=O)(=O)O)cc3)cc2)ccc1N (stereo not drawn),5.55,1.5,–,–,–,–
OCCCc1cnco1,–,–,> 100,> 100,> 100,TGI [8]: > 100 µM; TGI [9]: > 100 µM; TGI [7]: > 100 µM
CC(=O)Oc1c(Br)ccc2cc(C(Br)Br)c(C(=O)c3ccccc3)nc12,–,–,42.3,52.3,71.4,TGI [8]: 31.2 µM; TGI [9]: 42.2 µM; TGI [5]: 47.6 µM; TGI [7]: 36.1 µM
CS(=N)(=O)CCC(N)P(=O)(O)O (stereo not drawn),> 100,–,–,–,–,TGI [2]: > 100 µM
CC(=O)SC(SC(C)=O)SC(C)=O,–,–,> 100,> 100,> 100,TGI [8]: > 100 µM; TGI [9]: > 100 µM; TGI [5]: > 100 µM
Fc1ccc(C2SCc3nc4ccccc4n32)cc1F (stereo not drawn),–,–,97.9,> 100,> 100,TGI [8]: > 100 µM; TGI [9]: > 100 µM; TGI [5]: > 100 µM; TGI [7]: > 100 µM
O=C1c2cccnc2C(=O)c2c1c(C(=O)OCCc1ccccn1)c1ccccn21,3.21,< 0.0338,–,–,–,–
COc1cc2c3c(n(CCCN4CCCNCC4)c(=O)c2cc1OC)-c1cc2c(cc1C3=O)OCO2,14.2,2.09,–,–,–,–
Oc1ccc(Cc2ccc(O)c(C3CC(c4ccc(Cl)cc4)=NN3)c2)cc1C1CC(c2ccc(Cl)cc2)=NN1 (stereo not drawn),24.8,2.48,–,–,–,–
CCN(CC)CC(O)COc1c(Br)c(Br)c(Br)c2c1OC(C)(C)C2 (stereo not drawn),19,4.58,–,–,–,–
CCC(C)CC(C)C(=O)c1c(O)ccn(O)c1=O (stereo not drawn),> 100,3.08,–,–,–,–
CCCOc1ccc(/C=N/Nc2cc(C)nc3ccc(Cl)cc23)cc1,4.63,2.15,–,–,–,–
O=[N+]([O-])c1ccc(/C(Cl)=C/c2ccc(/C=C(\Cl)c3ccc([N+](=O)[O-])cc3[N+](=O)[O-])cc2)c([N+](=O)[O-])c1,–,–,> 100,> 100,> 100,TGI [5]: > 100 µM
COc1ccc(C2CC(c3ccc4ccccc4c3)=NN2c2nc(O)c(C3=c4cc(OC)ccc4=NC3=O)s2)cc1 (stereo not drawn),0.614,0.0418,–,–,–,–
CCCCN(CCCC)CC(C(=O)Nc1ccc([N+](=O)[O-])cc1[N+](=O)[O-])/C(C)=N\NC(=O)C[N+](C)(C)C (stereo not drawn),–,–,31.2,> 100,> 100,TGI [8]: > 100 µM; TGI [9]: > 100 µM; TGI [5]: > 100 µM; TGI [7]: > 100 µM
O=C(c1cccs1)c1nc2cc(Cl)ccc2[n+]([O-])c1C(F)(F)F,> 100,> 100,–,–,–,–
Cn1c(NCC(CN2CCCC2)OC(=O)c2ccccc2)cc(=O)n(C)c1=O (stereo not drawn),> 100,> 100,–,–,–,–
NC(=S)N/N=C(\CCC(=O)Nc1ccccc1[N+](=O)[O-])CC(=O)c1ccco1,–,–,> 100,> 100,> 100,TGI [8]: > 100 µM; TGI [9]: > 100 µM; TGI [5]: > 100 µM; TGI [7]: > 100 µM
NC(CO)c1ccc(OCc2ccccc2)cc1 (stereo not drawn),–,–,> 100,> 100,> 100,TGI [8]: > 100 µM; TGI [9]: > 100 µM; TGI [7]: > 100 µM
